The values below come from ChEMBL document CHEMBL2074170, “Influence of different chemicals on MDR-1 P-glycoprotein expression and activity in the HK-2 proximal tubular cell line” (Toxicol Appl Pharmacol, 2002).

The target of data set [1] is T1, ATP-dependent translocase ABCB1 (Homo sapiens, UniProt P08183). The data set can be described thus: TP_TRANSPORTER: Western blot, HK-2 cells. It is filed as functional, cell-based. For orientation: A western blot detects proteins with antibodies after separation by electrophoresis.
In data set [2] the target is T1, ATP-dependent translocase ABCB1. Description: TP_TRANSPORTER: RT-PCR in HK-2 cell. It is filed as functional, cell-based.

The structures appear in SMILES notation.

T1 sequence (P08183 whole entry): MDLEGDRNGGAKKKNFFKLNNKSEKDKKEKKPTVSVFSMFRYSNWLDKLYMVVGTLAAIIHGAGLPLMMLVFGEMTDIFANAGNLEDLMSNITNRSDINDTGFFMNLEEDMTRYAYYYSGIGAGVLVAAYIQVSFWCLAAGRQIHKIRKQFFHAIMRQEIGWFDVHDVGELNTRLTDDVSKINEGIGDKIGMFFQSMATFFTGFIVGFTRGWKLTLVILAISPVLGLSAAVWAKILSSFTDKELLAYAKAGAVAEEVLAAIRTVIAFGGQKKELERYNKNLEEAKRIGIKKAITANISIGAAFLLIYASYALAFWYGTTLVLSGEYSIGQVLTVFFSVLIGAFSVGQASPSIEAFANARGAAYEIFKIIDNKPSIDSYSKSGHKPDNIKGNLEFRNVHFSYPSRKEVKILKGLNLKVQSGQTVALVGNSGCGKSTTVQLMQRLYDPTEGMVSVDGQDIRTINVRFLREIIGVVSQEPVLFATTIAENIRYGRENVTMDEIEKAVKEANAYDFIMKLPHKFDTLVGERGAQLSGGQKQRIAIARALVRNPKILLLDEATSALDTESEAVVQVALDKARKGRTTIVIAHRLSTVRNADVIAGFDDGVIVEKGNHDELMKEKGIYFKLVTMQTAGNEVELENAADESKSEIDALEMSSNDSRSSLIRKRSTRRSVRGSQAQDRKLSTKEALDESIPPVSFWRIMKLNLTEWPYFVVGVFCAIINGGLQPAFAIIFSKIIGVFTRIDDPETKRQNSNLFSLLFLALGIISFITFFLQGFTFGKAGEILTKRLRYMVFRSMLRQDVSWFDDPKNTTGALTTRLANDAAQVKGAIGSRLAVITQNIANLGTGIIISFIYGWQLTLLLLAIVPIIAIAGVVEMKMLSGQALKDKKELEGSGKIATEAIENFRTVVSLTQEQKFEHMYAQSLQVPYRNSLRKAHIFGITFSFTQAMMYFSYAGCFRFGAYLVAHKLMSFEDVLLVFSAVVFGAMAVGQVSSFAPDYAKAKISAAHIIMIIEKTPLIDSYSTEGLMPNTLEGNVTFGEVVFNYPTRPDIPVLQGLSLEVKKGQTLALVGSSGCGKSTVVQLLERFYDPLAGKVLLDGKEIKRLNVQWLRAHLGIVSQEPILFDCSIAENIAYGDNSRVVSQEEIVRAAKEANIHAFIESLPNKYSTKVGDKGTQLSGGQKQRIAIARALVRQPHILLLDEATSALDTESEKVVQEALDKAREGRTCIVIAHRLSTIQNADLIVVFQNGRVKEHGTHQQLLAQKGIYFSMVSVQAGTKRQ

On to `C[C@@H]1C[C@H]2[C@@H]3CCC4=CC(=O)C=C[C@]4(C)[C@@]3(F)[C@@H](O)C[C@]2(C)[C@@]1(O)C(=O)CO` [DEXAMETHASONE], for which the Activity result in data set [1] and in data set [2] was “inducer [+]” in each case. In the case of `CCCCCCCCCCCCCCCCOC[C@H](COP(=O)([O-])OCC[N+](C)(C)C)OC(C)=O` [PLATELET ACTIVATING FACTOR], the Activity entry in data set [1] and in data set [2] was “inducer [+]” throughout. Turning to `CC(=O)[C@H]1CC[C@H]2[C@@H]3CCC4=CC(=O)CC[C@]4(C)[C@H]3CC[C@]12C` [PROGESTERONE], the Activity result in data set [1] and in data set [2] was “is not an inducer [-]” in each case. `CN/C(=N/CCSCc1nc[nH]c1C)NC#N` [CIMETIDINE]: the Activity result in data set [1] and in data set [2] was “is not an inducer [-]” in each case. As for `Cc1ccc2cc3c(ccc4ccccc43)c3c2c1CC3` [3-METHYLCHOLANTHRENE], the Activity entry in data set [1] is “inducer [Decrease]”. For the molecule `C[C@]12CCC(=O)C=C1CC[C@@H]1[C@@H]2[C@@H](O)C[C@]2(C=O)[C@@H](C(=O)CO)CC[C@@H]12` [ALDOSTERONE], the Activity entry in data set [1] was “inducer [+]”. In the case of `COc1cc(Cc2cnc(N)nc2N)cc(OC)c1OC` [TRIMETHOPRIM], the Activity result in data set [1] and in data set [2] was “is not an inducer [-]” throughout. For `CC(=O)Nc1ccc2c(c1)Cc1ccccc1-2` [2-ACETYLAMINOFLUORENE], the Activity result in data set [1] and in data set [2] was “inducer [Decrease]” each time. As for `COc1ccc(CCN(C)CCCC(C#N)(c2ccc(OC)c(OC)c2)C(C)C)cc1OC` (stereo unspecified), the Activity entry in data set [1] and in data set [2] was “is not an inducer [-]” each time.
